Assay results: paper PMC10761696, “Avapritinib-based SAR studies unveil a binding pocket in KIT and PDGFRA” (Nature Communications, 2024)
Several values for one entry are separate records, joined by “and”; a condition that tells them apart may be missing. Equal entries are not always repeated. Where two headings read alike, the source gives them in different places.

Key:
[1] = MDCKII-MDR1 permeability assay; settings: dog, MDCK-MDR1, Papp A->B, MDCKII-MDR1; assay conc. 10; apical to basolateral
[2] = system: MDR1; assay: MDCKII-MDR1 permeability assay; settings: dog, MDCKII-MDR1, assay conc. 10
[3] = target: T1, PDGFRA-D842V (Homo sapiens, UniProt P16234, D842V); assay: Activity-based HTRF KinEASE assay, PDGFRA-D842V; assay type: biochemical
T1 construct: purchased Invitrogen PV4203 (lot #2343231B)
T1 sequence (P16234 24-1089 D842V): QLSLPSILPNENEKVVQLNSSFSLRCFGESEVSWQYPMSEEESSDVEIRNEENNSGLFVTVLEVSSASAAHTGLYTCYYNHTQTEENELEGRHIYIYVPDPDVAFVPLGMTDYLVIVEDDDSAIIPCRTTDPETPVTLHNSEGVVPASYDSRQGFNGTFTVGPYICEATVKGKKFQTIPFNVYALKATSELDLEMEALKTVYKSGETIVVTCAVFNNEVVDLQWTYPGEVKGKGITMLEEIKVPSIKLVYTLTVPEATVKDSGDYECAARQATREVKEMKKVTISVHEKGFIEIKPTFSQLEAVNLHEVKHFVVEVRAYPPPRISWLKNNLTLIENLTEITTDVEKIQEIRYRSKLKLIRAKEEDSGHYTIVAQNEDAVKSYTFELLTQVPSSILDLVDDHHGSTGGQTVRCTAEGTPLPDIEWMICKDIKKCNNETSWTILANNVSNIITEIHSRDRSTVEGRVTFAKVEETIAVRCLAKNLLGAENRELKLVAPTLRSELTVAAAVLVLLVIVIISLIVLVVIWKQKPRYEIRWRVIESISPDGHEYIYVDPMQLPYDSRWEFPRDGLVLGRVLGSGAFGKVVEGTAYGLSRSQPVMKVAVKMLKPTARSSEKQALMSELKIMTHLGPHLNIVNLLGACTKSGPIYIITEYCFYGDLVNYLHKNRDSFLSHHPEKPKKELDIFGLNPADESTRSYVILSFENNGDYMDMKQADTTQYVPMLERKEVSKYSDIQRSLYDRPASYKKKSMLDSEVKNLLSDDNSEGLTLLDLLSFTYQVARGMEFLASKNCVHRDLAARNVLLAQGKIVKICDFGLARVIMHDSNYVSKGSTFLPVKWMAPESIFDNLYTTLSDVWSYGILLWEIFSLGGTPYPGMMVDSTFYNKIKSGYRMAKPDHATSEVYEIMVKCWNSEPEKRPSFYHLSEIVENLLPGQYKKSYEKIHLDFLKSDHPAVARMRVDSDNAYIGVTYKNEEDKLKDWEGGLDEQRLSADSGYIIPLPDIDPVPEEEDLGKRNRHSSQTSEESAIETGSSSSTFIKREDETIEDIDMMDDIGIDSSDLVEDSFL

[4] = target: KIT-D816H (Homo sapiens, UniProt P10721, D816H); assay: Activity-based HTRF KinEASE assay, KIT-D816H; assay type: biochemical
KIT-D816H, sequence (P10721 26-976 D816H): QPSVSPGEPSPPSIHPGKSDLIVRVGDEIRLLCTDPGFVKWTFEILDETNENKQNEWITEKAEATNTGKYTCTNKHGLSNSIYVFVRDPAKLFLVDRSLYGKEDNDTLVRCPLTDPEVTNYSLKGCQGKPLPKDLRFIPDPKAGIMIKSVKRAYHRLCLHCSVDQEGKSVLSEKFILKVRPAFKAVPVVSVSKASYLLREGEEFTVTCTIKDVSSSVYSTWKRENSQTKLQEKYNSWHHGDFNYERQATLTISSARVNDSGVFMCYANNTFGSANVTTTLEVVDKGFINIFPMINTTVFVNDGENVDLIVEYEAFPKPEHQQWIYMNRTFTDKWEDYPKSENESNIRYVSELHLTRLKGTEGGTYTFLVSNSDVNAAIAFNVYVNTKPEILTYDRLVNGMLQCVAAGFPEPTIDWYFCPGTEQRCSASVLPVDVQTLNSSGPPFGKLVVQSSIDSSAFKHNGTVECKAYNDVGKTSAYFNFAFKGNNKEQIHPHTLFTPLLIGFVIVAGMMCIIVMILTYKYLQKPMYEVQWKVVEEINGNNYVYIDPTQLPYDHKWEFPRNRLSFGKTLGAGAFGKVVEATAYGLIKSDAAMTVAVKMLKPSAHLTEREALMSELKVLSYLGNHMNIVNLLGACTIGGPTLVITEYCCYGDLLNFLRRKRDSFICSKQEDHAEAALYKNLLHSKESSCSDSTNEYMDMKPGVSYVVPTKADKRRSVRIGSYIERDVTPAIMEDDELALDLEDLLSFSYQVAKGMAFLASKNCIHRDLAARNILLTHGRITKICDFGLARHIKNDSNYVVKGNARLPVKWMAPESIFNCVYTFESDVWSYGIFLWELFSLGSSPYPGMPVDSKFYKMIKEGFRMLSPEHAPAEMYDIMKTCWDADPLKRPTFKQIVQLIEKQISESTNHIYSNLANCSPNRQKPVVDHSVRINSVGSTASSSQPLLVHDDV

[5] = system: ZR-75-1; assay: CellTiter-Glo (CTG) EC50, ZR-75-1 breast cancer control cell line; assay type: cell-based, human
Experimental: (§1) Cell line authenticity was confirmed by STR analysis at Eurofins Genomics. All cell lines were tested regularly for mycoplasma contamination using the Mycoplasmacheck Service at Eurofins Genomics. […] Following incubation for 24 h in a humidified atmosphere at 37 °C and 5% CO2, cells were treated with inhibitors in serial dilutions ranging from 30 µM down to 0.1 nM using an Echo650 acoustic liquid handler (Beckman Coulter). Cell viability was analyzed on day 5 using the CellTiter-Glo® assay (Promega) using 500 ms integration time. The obtained data were normalized to the plate positive control (30 µM staurosporine) and negative control (DMSO) and subsequently analyzed and fitted with the Quattro Software Suite (Quattro Research) using a four-parameter logistic model. As quality control, the Z’-factor was calculated from 16 positive and negative control values. Only assay results showing a Z’-factor ≥0.5 were used for further analysis. All experimental points were measured in duplicates for each plate and were independently replicated in at least three plates.

[6] = system: MDA-MB-175VII; assay: CellTiter-Glo (CTG) EC50, MDA-MB-175VII breast cancer control cell line; assay type: cell-based, human
Experimental: as §1

[7] = system: GIST-T1; assay: CellTiter-Glo (CTG) GR50, GIST-T1; settings: Homo sapiens
[8] = system: T1-T670I; assay: CellTiter-Glo (CTG) GR50, T1-T670I; settings: Homo sapiens
[9] = system: T1-V654A; assay: CellTiter-Glo (CTG) GR50, T1-V654A; settings: Homo sapiens
[10] = system: T1-a-5258; assay: CellTiter-Glo (CTG) GR50, T1-a-5258; settings: Homo sapiens
[11] = system: SK-LMS-1; assay: CellTiter-Glo (CTG) GR50, SK-LMS-1 control cell line; settings: for CTG GR50 SK-LMS-1, single determinations: raw data of Supp. Tab. 2, independent experiments, unit from Supp. Tab. 2
[12] = system: GIST-48B; assay: CellTiter-Glo (CTG) GR50, GIST-48B control cell line (off-target toxicity); settings: ratio of GR50 values; for GIST-48B/D842V: source data sheet
[13] = mean ± s.d., n ≥ 3, ATP at KM (14 µM), read-out: HTRF IC50 PDGFRA-D842V
[14] = raw data of Table 1, independent experiments 1-3, unit from Table 1, read-out: HTRF IC50 PDGFRA-D842V, single determinations
[15] = mean ± s.d., n ≥ 3, ATP at KM (12 µM), read-out: HTRF IC50 KIT-D816H
[16] = raw data of Table 1, independent experiments, unit from Table 1, read-out: HTRF IC50 KIT-D816H, single determinations
[17] = Homo sapiens, ZR-75-1, mean ± s.d., n = 3, control cell line, read-out: CTG EC50 ZR-75-1
[18] = Homo sapiens, ZR-75-1, raw data of Supp. Tab. 2, independent experiments, unit from Supp. Tab. 2, read-out: CTG EC50 ZR-75-1, single determinations
[19] = Homo sapiens, MDA-MB-175-VII, read-out: CTG EC50 MDA-MB-175VII, mean ± s.d., n = 3, control cell line
[20] = Homo sapiens, MDA-MB-175-VII, read-out: CTG EC50 MDA-MB-175VII, single determinations, raw data of Supp. Tab. 2, independent experiments, unit from Supp. Tab. 2
[21] = GISTT1, read-out: KIT CTG GR50 GIST-T1, mean ± s.d., n ≥ 3, GR50 half-maximal growth inhibition rate
[22] = read-out: CTG GR50 T1-T670I, single determinations, raw data of Supp. Tab. 1, independent experiments, unit from Supp. Tab. 1
[23] = read-out: KIT CTG GR50 T1-T670I, mean ± s.d., n ≥ 3
[24] = read-out: CTG GR50 T1-V654A, single determinations, raw data of Supp. Tab. 1, independent experiments, unit from Supp. Tab. 1
[25] = read-out: KIT CTG GR50 T1-V654A, mean ± s.d., n ≥ 3 (* n = 2 for ava)
[26] = read-out: CTG GR50 T1-a-5258, single determinations, raw data of Supp. Tab. 1, independent experiments, unit from Supp. Tab. 1
[27] = read-out: PDGFRA CTG GR50 T1-a-5258, mean ± s.d., n ≥ 3, triple mutant D842V, G652E, V658A
[28] = GISTT1, read-out: CTG GR50 GIST-T1, single determinations, raw data of Table 1, independent experiments, unit from Table 1

SMILES | IC50 [3, 13] | IC50 [3, 14] | IC50 [4, 15] | IC50 [4, 16] | EC50 [5, 17] | EC50 [5, 18] | EC50 [6, 19] | EC50 [6, 20] | GI50 [7, 21] | GI50 [8, 22] | GI50 [8, 23] | GI50 [9, 24] | GI50 [9, 25] | GI50 [10, 26] | GI50 [10, 27] | ratio GIST-48B/ T1-a-D842V [12] | GIST-48B/D842V [12] | GI50 [7, 28] | CTG GR50 SK-LMS-1, single determinations [11] | also measured
Cn1cc(-c2cc3c(N4CCN(c5ncc(C(C)(N)c6ccc(F)cc6)cn5)CC4)ncnn3c2)cn1 (centres unmarked) [1 (avapritinib)] |  |  |  |  |  |  |  |  |  |  |  |  |  |  |  |  |  |  |  | Papp A→B at 2 h, 10 µM [1]: 12.5 ×10⁻⁶ cm/s; recovery at 2 h, 10 µM ([2]; MDCK-MDR1, Recovery A->B): 87.6%; recovery at 2 h, 10 µM ([2]; MDCK-MDR1, Recovery B->A): 150%
Cn1cc(-c2cc3c(Cl)ncnn3c2)cn1 [Compound 2, 4-chloro-6-(1-methyl-1H-pyrazol-4-yl)pyrrolo[2,1-f][1,2,4]triazine] | 7.34 µM | 4.47 µM and 9.3 µM and 8.26 µM | 9.3 ± 1.21 µM | 7.91 µM and 10 µM (2×) | 6.48 µM | 7.51 µM | 9.19 µM | 10 µM | 6.73 ± 2.07 µM | 3.55 µM | 2.87 ± 0.51 µM | 6.09 µM | 7.56 ± 0.991 µM | 1.38 µM | 1.34 ± 0.07 µM | 3 | 3 |  |  | EC50 ([5]; raw data of Supp. Tab. 2, independent experiments, unit from Supp. Tab. 2, read-out: CTG EC50 ZR-75-1, single determinations): 7.14 µM and 4.8 µM; EC50 ([6]; read-out: CTG EC50 MDA-MB-175VII, single determinations, raw data of Supp. Tab. 2, independent experiments, unit from Supp. Tab. 2): 7.57 µM; CTG GR50 SK-LMS-1 ([11]; mean ± s.d., n = 3, control cell line): 7.713 ± 3.929 µM and 7.713 µM
Cn1cc(-c2cc3c(N4CCN(c5ncc(Cc6ccccc6)cn5)CC4)ncnn3c2)cn1 [Compound 5] |  |  |  |  | ≥ 10 µM | ≥ 10 µM | ≥ 10 µM | ≥ 10 µM | 1.48 ± 1.2 µM | ≥ 10 µM | ≥ 10 µM | ≥ 10 µM | ≥ 10 µM | 6.6 µM | 8.26 ± 1.7 µM |  |  |  | ≥10 µM | 

Further lines, with some results ahead:

IC50 [3, 13] | IC50 [3, 14] | IC50 [4, 15] | IC50 [4, 16] | EC50 [5, 17] | EC50 [5, 18] | EC50 [6, 19] | EC50 [6, 20] | SMILES | GI50 [7, 21] | GI50 [8, 22] | GI50 [8, 23] | GI50 [9, 24] | GI50 [9, 25] | GI50 [10, 26] | GI50 [10, 27] | ratio GIST-48B/ T1-a-D842V [12] | GIST-48B/D842V [12] | GI50 [7, 28] | CTG GR50 SK-LMS-1, single determinations [11] | also measured
5.59 ± 2.56 µM | 2.5 µM and 8.76 µM and 5.5 µM | 1.54 ± 0.852 µM | 1.4 µM and 0.766 µM and 2.45 µM | ≥ 10 µM | ≥ 10 µM | ≥ 10 µM | ≥ 10 µM | Cn1cc(-c2cc3c(N4CCNCC4)ncnn3c2)cn1 [Compound 3] | ≥ 10 µM |  |  |  |  |  |  | 1 | 1 | ≥ 10 µM | ≥10 µM | 
0.035 ± 0.013 µM | 0.0496 µM and 0.0362 µM and 0.0185 µM | 0.076 ± 0.045 µM | 0.0275 µM and 0.0821 µM and 0.118 µM | ≥ 10 µM | ≥ 10 µM | ≥ 10 µM | ≥ 10 µM | Cn1cc(-c2cc3c(N4CCN(c5ncccn5)CC4)ncnn3c2)cn1 [Compound 4] | 5.27 ± 0.509 µM | ≥ 10 µM | ≥ 10 µM | ≥ 10 µM | ≥ 10 µM | ≥ 10 µM | ≥ 10 µM | 5 | 5.3 | 5.8 µM | ≥10 µM | fold increase in potency with respect to PDGFRA-D842V ([3]; 4 (pyrimidine added) compared with 3): 160 fold
